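Dose response: 5 concentrations. Exposure: 48 h. Format: 96-well plates. Endpoint: linear interpolation; highest concentration if not reached. The concentration for 50% growth inhibition is given as GI50. TGI marks complete inhibition of growth.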
Tests used:
Experiment in all cases: NCI tumour cell line growth inhibition, 48 h
MOLT-4 leukemia = test system: MOLT-4 leukemia
TK-10 renal = test system: TK-10 renal
CAKI-1 renal = test system: CAKI-1 renal
SF-268 CNS = test system: SF-268 CNS
SR leukemia = test system: SR leukemia
SNB-19 CNS = test system: SNB-19 CNS
K-562 leukemia = test system: K-562 leukemia
NCI-H522 lung = test system: NCI-H522 lung
T-47D breast = test system: T-47D breast
EKVX NSCLC = test system: EKVX NSCLC

Compound	TGI (MOLT-4 leukemia) [µM]	TGI (TK-10 renal) [µM]	TGI (CAKI-1 renal) [µM]	TGI (SF-268 CNS) [µM]	TGI (SR leukemia) [µM]	TGI (SNB-19 CNS) [µM]	TGI (K-562 leukemia) [µM]	TGI (NCI-H522 lung) [µM]	TGI (T-47D breast) [µM]	TGI (EKVX NSCLC) [µM]	GI50 (T-47D breast) [µM]	GI50 (MOLT-4 leukemia) [µM]	GI50 (TK-10 renal) [µM]	GI50 (CAKI-1 renal) [µM]	GI50 (SF-268 CNS) [µM]	GI50 (SR leukemia) [µM]	GI50 (SNB-19 CNS) [µM]	GI50 (K-562 leukemia) [µM]	GI50 (NCI-H522 lung) [µM]	GI50 (EKVX NSCLC) [µM]
CC1=C(C(=O)OCCc2ccc([N+](=O)[O-])cc2)C(c2ccccc2[N+](=O)[O-])C(C(=O)OC(C)C)=C(C)N1 (stereo unspecified)	9.93	> 100	> 100	> 100	> 100	> 100	> 100	7.82	> 100	39.2										
O=C(N/N=C\c1cccc2ccccc12)Nc1ccc([N+](=O)[O-])cc1	> 100	> 80.9	> 100	> 88.9	> 100	> 100	> 100	> 53.9	> 41.4	> 100										
COc1ccc(/C=C/c2cc(O)cc(OC)c2)cc1	> 100	> 100	> 100	> 100	> 100	> 100	> 100	> 100	> 100	> 100										
CN(CCc1ccc(Cl)c(Cl)c1)[C@H]1CCCC[C@H]1N1CCCC1	> 100	> 100	> 100	> 100	> 100	> 100	> 100	> 100	> 100	> 100										
COc1ccc(C(O)c2ccc3c(c2)OCO3)cc1 (stereo unspecified)	> 100	> 100	> 100	> 100	> 100	> 100	> 100	> 100	> 100	> 100										
CCOC(=O)c1ccc2nc(NC(=O)COC(=O)CSc3nc(C)cc(C)n3)sc2c1	> 100	> 100	> 100	> 100	> 100	> 100	> 100	> 100	63.6	62										
Cc1cc(C)c(S(=O)(=O)N(CCCCN)OCCCN)c(C)c1	28.6	32	31.3	34.3	38	34.5	44.4	29.9	33.4	31										
O=C(/C=C/c1ccc(-c2ccccc2[N+](=O)[O-])o1)NCc1ccc(C(=O)NCCc2ccccc2)cc1	> 100	> 100	> 100	> 100	> 100	> 100	> 100	> 100	> 100	> 100										
OC1CCCC1C(O)(C(F)(F)F)C(F)(F)F (stereo unspecified)	> 100	> 100	> 100	> 100	> 100	> 100	> 100	> 100	> 100	> 100										
CC(=O)/C=C/C=C(\C)CC/C=C(\C)CC(C)C	41.9	> 100	> 100	> 100	39.1	> 100	56.8	42.6	46	> 100										
CCOC(=O)c1ccc(C(=O)C(C(C)=O)C(=O)OC(C)(C)C)n1C (stereo unspecified)	> 100	> 100	> 100	> 100	> 100	> 100	> 100	> 100	> 100	> 100										
CC(=O)O[C@H]1C#C/C=C\C#CC[C@@H]2C(=O)N(C(=O)OC(C)(C)C)[C@@H]12	> 53.5	> 100	> 54	> 75.2	> 100	97	> 100	47.8	88.6	> 100										
Cc1nnc2cc(C(=O)O)c3ccccc3n2c1=O	> 10	> 10	> 10	> 10	> 10	> 10	> 10	> 10	> 10	> 10										
O=C(O)C(CCc1ccccn1)c1ccccc1 (stereo unspecified)	> 100	> 100	> 100	> 100	> 100	> 100	> 100	> 100	> 100	> 100										
C#CCNC(Cc1cnc[nH]1)C(=O)O (stereo unspecified)	> 100	> 100	> 100	> 100	> 100	> 100	> 100	> 100	> 100	> 100										
Cc1ccc(S(=O)(=O)n2cncc2CO)cc1	> 100	> 100	> 100	> 100	> 100	> 100	> 100	> 100	> 100	> 100										
Cn1c(=O)c2c(-c3ccccc3)onc2n(C)c1=O	81.5	42.9	> 100	> 100	75.2	> 100	> 100	> 100	> 100	> 100										
Cc1csc2c1C(=O)c1ccsc1C2=O	27.2	35.2	34	12.1	> 45	9.98	> 25.6	5.16	4.99	20										
CC(CCC(=O)O)[C@H]1CCC2[C@H]3C(CC[C@@]21C)[C@@]1(C)CCC(O)C[C@H]1C[C@@H]3O (stereo partly specified)	> 100	> 100	> 100	> 100	> 100	> 100	> 100	> 100	> 100	> 100										
Cc1cc(S(=O)(=O)Nc2nnc3c(C(F)(F)F)cc(Cl)cn23)c(S)cc1Cl	> 100	> 100	> 100	> 100	> 100	> 100	> 100	> 100	> 100	> 100										
N#CCCC1C(C#N)C2CC1C1C3C=CC(C3)C21 (stereo unspecified)	> 100	> 100	> 100	> 100	> 100	> 100	> 100	> 100	> 100	> 100										
OCC1OC(n2cnc3cccnc32)CC1O (stereo unspecified)	> 100	> 100	> 100	> 100	> 100	> 100	> 100	> 100	> 100	> 100										
Nc1nc(Cl)cc(N=Nc2ccccc2)n1	> 100	> 100	> 100	> 100	> 100	> 100	> 100	> 100	> 100	> 100										
C/C(=N\NC(N)=O)C(CN1CCCCC1)C(c1ccccc1)c1c(O)c2ccccc2oc1=O (stereo unspecified)	> 94.4	> 100	> 100	> 100	> 100	> 100	> 100	> 100	> 100	> 100	> 100									
Cc1ccc(C(=O)N(C(C)C)C(C)C)cc1N=NN(C)C	> 100	> 100	> 100	98	> 100	> 100	> 100	43.2	> 100	> 100										
O=C1c2[nH]cc(CN3CCNCC3)c2C(=O)c2c1c(O)c1ccccc1c2O	> 20	12.2	5.94	66.4	> 100	6	> 100	3.65	34.4	2.49	13.8	3.08	6.5	2.21	22.9	6.09	2.22	3.42	1.76	0.769
COC(=O)c1ccc(-c2nc(C#N)c(N)o2)cc1	> 100	> 100	> 100	> 100	> 100	> 100	> 100	> 100	> 100	> 100										
CCC1(CC)C(=O)CC[C@@]2(C)C1=CC[C@H]1[C@@H]3CC[C@H](O)[C@@]3(C)CC[C@@H]12	54.8	41.9	> 100	99.2	31.8	> 100	37.3	78.6	99.7	> 100										
C/C(O)=C(\C=N\C(N)=S)C(=O)Nc1ccccc1C	> 100	> 100	> 100	> 100	> 100	> 100	> 100	> 100	> 100	> 100										
CCCCC[C@@H]1OCO[C@@]2(C)/C=C(C)/C=C/C(=O)O[C@H]([C@@H](C)[C@@H](O)[C@H](C)[C@@]3(O)C[C@@H](O[C@H]4C[C@@H](O)[C@H](O)[C@@H](C)O4)[C@H](C)[C@@H](C)O3)[C@@H](OC)/C=C/C=C(\C)C[C@@H]1[C@@H]2O (stereo in doubt)	0.809	8.83	2.69	7.77	< 0.005	7.78	7.54	7.46	9.09	3.07										
